The test system of assay [1] is RA FLS. The following applies: cited from earlier work.
The next assay has as its system MΦs. The following applies: classical and Syntenin-1-differentiated MΦs; cited from earlier work.
Assay [2] concerns RA FLS. The settings on record: IL-6/IFNγ signaling; cited from earlier work.
The next assay concerns RA MΦs. Description: Syntenin-1 stimulation and inhibition in RA MΦs (qRT-PCR, ELISA). It counts as cell-based, human. The following applies: Syntenin-1 1000 ng/mL, 6 h or 24 h vs PBS, FIGS. 2B-2E. As for the experimental part: FIGS. 2A-K show ligation of Syntenin-1 to SDC-1 expands RA MΦ inflammatory profile independent of IL 5R or PDZ1 function. […] Transcription of IRFs (FIG. 2B) and the inflammatory monokines (FIG. 2C) was assessed by qRT-PCR (n=3-10), and protein levels of IL-6 (FIG. 2D) or TNFα (FIG. 2E) were determined in the conditioned media by ELISA (n=10). […] Data are presented as mean±SEM: significant differences were determined by the Mann-Whitney test, two-way-ANOVA, or one-way ANOVA. *p<0.05, **p<0.01, ***p<0.001, ****p<0.0001. ANOVA, analysis of variance.
(B, C) RA MΦs were treated with PBS (ctrl) or Syntenin-1 (1000 ng/mL) for 6 hours and transcription levels of HIF1α (n=10) (FIG. 3B). GLUT1, RAPTOR, HK2, PFK2, PDK1, PKM2 (FIG. 3C) were quantified by qRT-PCR (n=6). […] FIGS. 3H, 3I) after 24 hours impact of treatment was determined on CD14+CD86+ GLUT1+ frequency by flow cytometry (n=4-5). […] Data are presented as mean±SEM; significant differences were determined by Mann-Whitney test, Student's t-test, two-way-ANOVA, or one-way ANOVA. *p<0.05, **p<0.01, ***p<0.001, ****p<0.0001. ANOVA, analysis of variance.
Quantitative Real-Time PCR. […] Transcription to cDNA and subsequent quantitative real-time PCR analysis was performed using the High-Capacity cDNA Reverse Transcription Kit (Applied Biosystems) and TaqMan Gene Expression Master Mix (Applied Biosystems). […]
(Real-time PCR tracks product formation cycle by cycle.)

Where only a bound is given, the exact number is not on record here.

Results on 3 molecules are retold here after patent US20260184807A1, “Methods for Treating Rheumatoid Arthritis Using a Syndecan-1 Inhibitor or Syntenin-1 Inhibitor” (The United States Government as represented by the …, priority 2022, published 2026).

With `O=CC[C@@H](O)[C@H](O)[C@H](O)CO` [2-DG, 2-deoxy-D-glucose], the “GLUT1 and HK2 transcriptional upregulation” value in the assay on RA FLS [1] (LPS/IFNγ reprogrammed RA FLS) is given as “suppressed”. The “upregulation of IRF1/5/7 along with IL-6, IL-8, and CCL2” value in the assay with RA FLS [1] (RA FLS differentiated by LPS/IFNγ) is “reversed”. Moreover, in the assay with RA FLS [1] (RA FLS reconfigured by LPS/IFNγ), the citrate accumulation result is on record as “resolved”. Further, the “metabolic activity expanded via GLUT1, LDHA, and lactate” value in the assay with MΦs is “impaired”.

Turning to `C[C@@H]1CCN(C(=O)CC#N)C[C@@H]1N(C)c1ncnc2[nH]ccc12` [Tofacitinib], in the assay on RA FLS [2], the “RA FLS migration” value is reported as “impaired”.

B1: Syntenin-1: Syntenin-1 protein (1000 ng/ml, NKMAX Co.) used as stimulus (protein, UniProt O00560 2-298, looked up)
Syntenin-1: SLYPSLEDLKVDKVIQAQTAFSANPANPAILSEASAPIPHDGNLYPRLYPELSQYMGLSLNEEEIRANVAVVSGAPLQGQLVARPSSINYMVAPVTGNDVGIRRAEIKQGIREVILCKDQDGKIGLRLKSIDNGIFVQLVQANSPASLVGLRFGDQVLQINGENCAGWSSDKAHKVLKQAFGEKITMTIRDRPFERTITMHKDSTGHVGFIFKNGKITSIVKDSSAARNGLLTEHNICEINGQNVIGLKDSQIADILSTSGTVVTITIMPAFIFEHIIKRMAPSIMKSLMDHTIPEV
For the molecule B1, the “expansion of monokines IL-1, TNF-α, IL-6, IL-8 and CCL2” value with RA MΦs is > 7 fold.
